Where “and” joins values, the source holds several entries; their conditions need not be identical. Equal entries are not always repeated.
System: L6-GLUT4myc myotubes
Assay: GLUT4 translocation: cell surface GLUT4myc by anti-Myc antibody assay in L6-GLUT4myc myotubes
Assay type: cell-based, rat
Set-up: key to GLUT4 translocation: fold of vehicle-treated group
Method: The L6-GLUT4myc rat myoblast cell line was obtained from Dr. Amira Klip and Dr. Philip Bilan, through a license granted by The Hospital for Sick Children, 555 University Avenue, Toronto, Ontario, Canada M5G 1 × 8; or purchased from Kerafast, Boston, MA (ESK202)[43]. The 3T3-L1-GLUT4myc fibroblast cell line was provided by Dr. Tomoyuki Yuasa, Tokushima University[44]. L6-GLUT4myc myoblasts were grown in MEMα (32571036, Thermo Fisher Scientific, Waltham, MA) supplemented with 10% FBS and 1% antibiotics, and then induced to differentiate into myotubes in MEMα supplemented with 2% FBS and 1% antibiotics for 5–8 days. 3T3-L1-GLUT4myc fibroblasts were induced to differentiate into adipocytes as described previously,[45] with minor modifications. Briefly, cells were grown to confluence in growth medium: DMEM (10569010, Thermo Fisher Scientific) supplemented with 10% FBS and 1% antibiotics, and then induced to differentiate into adipocytes in growth medium supplemented with 1 μM dexamethasone, 2 μM rosiglitazone, 0.5 mM isobutylmethylxanthine, and 10 μg mL^−1 insulin for 2 days. The adipocytes were then cultured in growth medium supplemented with 10 μg mL^−1 insulin for a few days before being used for the experiments.
Cell surface GLUT4 levels in the L6-GLUT4myc myoblasts and myotubes were determined by antibody binding assay as described previously[43],[44], with minor modifications. Briefly, cells in a 96- or 24-well plate were starved in serum-free MEMα (0.1% BSA and 1% antibiotics) for 3 h and then treated with the indicated concentrations of DS20060511 and/or insulin for 30 min at 37 °C. After fixation with 4% paraformaldehyde, the cells were incubated with 1% glycine in PBS at 4 °C for 10 min, and blocked with 10% normal goat serum and 3% BSA in PBS at 4 °C for 30 min. The cells were then incubated with anti-c-Myc antibody (sc-40, 1:500) diluted with blocking buffer at 4 °C for 1 h, washed with cold PBS(+), incubated with HRP-conjugated anti-mouse IgG diluted with blocking buffer at 4 °C for 30 min, and then washed again. SuperSignal ELISA Pico Chemiluminescent Substrate (Thermo Fisher Scientific) was added and the luminescent signal was measured. To investigate GLUT4 translocation in the 3T3-L1-GLUT4myc adipocytes, the cells were prepared in a 24-well plate, and anti-c-Myc antibody (sc-789, 1:1000), HRP-conjugated anti-rabbit IgG and SIGMAFAST OPD regent (Sigma–Aldrich) were added for optical detection of the cell surface GLUT4myc levels. The GLUT4 translocation activity was normalized to that in the vehicle-treated group.

C/C1=C/C(=O)O[C@@H]2C[C@@H](CC[C@H](C)/C=C\CC1)O[C@@](O)([C@@H]1CSC(=O)N1)C2 [Latrunculin B, reference compound]
effect on GLUT4 translocation induced by insulin (100 nM insulin, Latrunculin B 10-200 nM, Fig. 4d): suppressed GLUT4 translocation induced by insulin
effect on GLUT4 translocation induced by DS20060511 (30 μM DS20060511, Latrunculin B 10-200 nM, Fig. 4d): not that induced by DS20060511 treatment
GLUT4 translocation (Control (no insulin or DS20060511), Latrunculin B 10 nM): 1.16 and 0.86 and 0.98
GLUT4 translocation (Control, Latrunculin B 30 nM): 0.98 and 1.11 and 0.90
GLUT4 translocation (Control, Latrunculin B 100 nM): 1.11 and 0.92 and 0.97
GLUT4 translocation (Control, Latrunculin B 200 nM): 1.06 and 1.00 and 0.94

From PMC8379256, “A xanthene derivative, DS20060511, attenuates glucose intolerance by inducing skeletal muscle-specific GLUT4 translocation in mice” (Communications Biology, 2021)
